Results from publication PMC10989020, “Preclinical characterization of a non-peptidomimetic HIV protease inhibitor with improved metabolic stability” (Antimicrobial Agents and Chemotherapy, 2024).
Like-named read-outs stand apart in the source and are kept apart here.

Assays:
[1] = test system: HIV-1LAI wild type and site-directed PR mutants; assay: microbe, parasite or virus in culture; assay type: cell-based
[2] = test system: HIV-1 mutants resistant to NRTIs, NNRTIs, INSTIs
HIV-1IIIb = assay: Two-drug in vitro combination assay in MT-2 cells (MacSynergy II); assay type: cell-based; settings: for Combination effect: pairwise combination with GS-9770; for Antagonism volume / Synergy volume: pairwise combination with GS-9770, 99% confidence, MT-2/HIV-1IIIb
Procedure: Anti-HIV-1 assays evaluating the in vitro antiviral effect of two-drug combinations were performed in MT-2 cells as previously described ([26]). Data were normalized to positive and negative controls in each plate and expressed as a percentage of protection from CPE-dependent cell death and analyzed with the MacSynergy II software. Combination data were analyzed at the 99% confidence level, with synergy/antagonism volumes defined as follows: high synergy (>100 µM^2%), moderate synergy (50 to <100 uM^2%), additivity (>−50 to <50 µM^2%), and antagonism (<−50 µM^2%).

[3] = Metabolic stability in human liver microsomes; assay type: in vitro ADME
HIV-1 IIIb = assay: 5-day cytoprotection antiviral assay in MT-4 cells; assay type: cell-based
[4] = Cytotoxicity in uninfected MT-4 cells; assay type: cell-based, human; settings: human, uninfected (mock infected) MT-4 T cells, MT-4 T cell line
Procedure: (§1) Compound cytotoxicity assessment in MT-4 cells, primary CD4+ T lymphocytes, and MDMs was carried out using a protocol identical to the antiviral assay except uninfected cells were used and tested with higher concentration ranges of test compounds. Assessment of cytotoxicity in additional human cell lines (Gal-PC3, Gal-HepG2, HEp-2, Huh-7, MRC-5, HepG2-NTCP, Huh7-Lunet HCV 1b and 2a replicons, NHBE, A549-hACE2) and primary human PBMCs (resting and stimulated with PHA/IL-2) and hepatocytes have been described previously ([19]). For all cytotoxicity assays, the CC50 value for puromycin was determined as a positive internal control and to assess assay sensitivity in each cell type. The effect of tested compounds on cell viability was measured using a CellTiter-Glo readout, performed according to the manufacturer’s recommendations.

MT-4 T cell line = assay: Cytotoxicity in uninfected MT-4 cells; assay type: cell-based, human; settings: mock infected
Procedure: as §1

HIV-1 BaL [5] = assay: p24 production antiviral assay in CD4+ T-lymphocytes; assay type: cell-based
Text: (§2) Antiviral assays performed in HIV-1BaL infected CD4 +T-lymphocytes and monocyte-derived macrophages (MDMs) have been described previously ([18]). Cell-free supernatants derived from the CD4 +T cell and macrophage cultures were harvested 7- and 12-days post-infection, respectively, and the amount of HIV present was quantified by p24 antigen enzyme-linked immunosorbent assay (ELISA, Perkin Elmer, Waltham, MA) performed according to the manufacturer’s protocol.

[6] = Cytotoxicity in CD4+ T-lymphocytes; assay type: cell-based; settings: human, uninfected (mock infected) primary CD4+ T lymphocytes
Procedure: as §1

HIV-1 BaL [7] = assay: p24 production antiviral assay in monocyte-derived macrophages; assay type: cell-based
Text: as §2

[8] = Cytotoxicity in monocyte-derived macrophages; assay type: cell-based; settings: human, uninfected (mock infected) monocyte-derived macrophages
Procedure: as §1

[9] = test system: panel of 49 patient-derived HIV-1 reporter viruses with PI resistance-associated substitutions; assay type: cell-based; settings: for isolates with complete loss of activity: of 49 PI-resistant clinical isolates
[10] = single oral dose co-administered with a pharmacological boosting agent; cited from earlier work
[11] = biological target: recombinant HIV-1 protease (Human immunodeficiency virus type 1 group M subtype B, UniProt P04585); assay: biochemical
Procedure: For the HIV protease assay, recombinant HIV-1 protease expression, purification, and enzymatic assay using a fluorogenic readout were performed as previously described with some minor changes ([22]). […] After a 20-minute pre-incubation, the enzymatic reaction was initiated by the addition of the fluorogenic substrate to a final concentration of 40 µM and a final volume of 100 µL. The reaction was measured over 20 minutes on a Tecan Infinite M1000 plate reader using excitation and detection wavelengths of 320 nm and 420 nm, respectively.

Cytotoxicity in Gal-PC3 = assay type: cell-based; settings: human, Gal-PC3 cells
Procedure: as §1

[12] = Cytotoxicity in Gal-HepG2; assay type: cell-based; settings: human, Gal-HepG2 cells
Procedure: as §1

Cytotoxicity in HEp-2 = assay type: cell-based; settings: human, HEp-2 cells
Procedure: as §1

Cytotoxicity in Huh-7 = assay type: cell-based; settings: human, Huh-7 cells
Procedure: as §1

Cytotoxicity in MRC-5 = assay type: cell-based; settings: human, MRC-5 cells
Procedure: as §1

[13] = Cytotoxicity in primary human hepatocytes; assay type: cell-based
Procedure: as §1

[14] = Cytotoxicity in unstimulated PBMCs; assay type: cell-based; settings: human, unstimulated (resting) PBMCs
Procedure: as §1

[15] = Cytotoxicity in stimulated PBMCs; assay type: cell-based; settings: human
Procedure: as §1

[16] = Cytotoxicity across human cell types (summary ranges); assay type: cell-based; settings: human, human cell lines and primary cells (all cell types tested); across all of the cell types tested; read-out: mean CC50 range
Procedure: as §1

[17] = test system: 20 HIV-1 clinical isolates; assay: Antiviral assay in PBMCs with HIV-1 clinical isolates (RT endpoint); assay type: cell-based; settings: Human immunodeficiency virus 1, PBMC
Procedure: (§3) Antiviral assays using fresh human PBMCs independently infected with a panel of clinical HIV-1 and HIV-2 isolates were performed by Southern Research as a contracted research study and assessed 7 days post-infection using reverse transcriptase (RT) endpoint assay. Antiviral assays using HIV-1 reporter viruses containing patient-derived sequences encoding all of PR and a portion of RT (amino acids 1–313) and conferring resistance to FDA-approved HIV PIs were performed by Monogram Biosciences Inc. (South San Francisco, CA) using their previously described Phenosense assay ([25]).

two HIV-2 isolates = assay: Antiviral assay in PBMCs with HIV-2 clinical isolates (RT endpoint); assay type: cell-based; settings: Human immunodeficiency virus 2, PBMC, 168 h, 7-day, RT activity
Procedure: as §3

[18] = Human immunodeficiency virus 1, PR L24I M46L A77I V82A
[19] = Human immunodeficiency virus 1, PR L24I M46L I64V A77I V82A
[20] = Human immunodeficiency virus 1, PR M46L A77I V82A
[21] = Human immunodeficiency virus 1, PR V82A
[22] = Human immunodeficiency virus 1, Wild type (WT) HIV-1LAI

O=C1Nc2ccc(Cl)cc2[C@@](C#CC2CC2)(C(F)(F)F)O1 [EFV, efavirenz] showed an EC50 [1, 18] of 1.1 ± 0.1 nM, an EC50 [1, 19] of 1 ± 0.2 nM and an EC50 [1, 20] of 1 ± 0.2 nM. The EC50 [1, 21] was 1.2 ± 0.6 nM, the EC50 [1, 22] was 1.3 ± 0.7 nM and the “fold-change relative to WT” value ([1]; PR L24I M46L A77I V82A) was 0.9 fold. The “fold-change relative to WT” value ([1]; PR L24I M46L I64V A77I V82A) was 0.8 fold, the “fold-change relative to WT” value ([1]; PR M46L A77I V82A) was 0.8 fold and the “fold-change relative to WT” value ([1]; PR V82A) was 1.0 fold. The “fold-change relative to WT” value ([1]; Wild type (WT) HIV-1LAI) was 1.0 fold, the “Fold resistance (mutant/wildtype EC50 ratio)” value ([2]; K103N) was 14 ± 12 and the “Fold resistance (mutant/wildtype EC50 ratio)” value ([2]; K103N+Y181C) was 11 ± 5. For the same compound, the “Fold resistance (mutant/wildtype EC50 ratio)” value ([2]; L100I+K103N) was >30, the “Fold resistance (mutant/wildtype EC50 ratio)” value ([2]; Y181C) was 3.5 ± 0.6 and the “Fold resistance (mutant/wildtype EC50 ratio)” value ([2]; Y188L) was >30.

For COc1cc2c(cc1Cc1cccc(Cl)c1F)c(=O)c(C(=O)O)cn2[C@H](CO)C(C)C [EVG, elvitegravir], the “Fold resistance (mutant/wildtype EC50 ratio)” value ([2]; E92Q+N155H) was >50, the “Fold resistance (mutant/wildtype EC50 ratio)” value ([2]; E138K+Q148K) was >50 and the “Fold resistance (mutant/wildtype EC50 ratio)” value ([2]; G140S+Q148R) was >50. The “Fold resistance (mutant/wildtype EC50 ratio)” value ([2]; Q148+N155H) was >50.

In the case of CC(C)OC(=O)[C@H](C)N[P@](=O)(CO[C@H](C)Cn1cnc2c(N)ncnc21)Oc1ccccc1 [TAF, tenofovir alafenamide], the Combination effect (HIV-1IIIb) is reported as “Highly synergistic”, the Antagonism volume (HIV-1IIIb) is reported as −4 ± 7 µM^2.% and the Synergy volume (HIV-1IIIb) is reported as 166 ± 51 µM^2.%.

With O=C(NCc1c(F)cc(F)cc1F)c1cn2c(c(O)c1=O)C(=O)N1[C@H]3CC[C@H](C3)O[C@@H]1C2 [BIC, bictegravir] the Combination effect (HIV-1IIIb) was “Highly synergistic”, the Antagonism volume (HIV-1IIIb) was −11 ± 13 µM^2.% and the Synergy volume (HIV-1IIIb) was 156 ± 49 µM^2.%.

With COC(=O)N[C@H](C(=O)N[C@@H](Cc1ccccc1)[C@@H](O)CN(Cc1ccc(-c2ccccn2)cc1)NC(=O)[C@@H](NC(=O)OC)C(C)(C)C)C(C)(C)C [ATV, atazanavir] the “Eh% (percent predicted hepatic extraction)” value [3] was 63%, the “Predicted CL (predicted human clearance)” value [3] was 13 mL/min/kg and the half-life ([3]; read-out: T½ in the presence of human liver microsomes) was 24 min. The EC50 (HIV-1 IIIb; Human immunodeficiency virus 1, IIIB, T-cell, 120 h) was 11 ± 3 nM, the “SI (CC50/EC50 ratio)” value (HIV-1 IIIb; MT-4 T cell line) was 4,700 and the “95% effective concentration (EC95)” value (HIV-1 IIIb; calculated from MT-4/HIV-1IIIb EC50 and Hill coefficient) was 19.5 nM. For the same compound, the CC50 [4] was > 50000 nM, the CC50 (MT-4 T cell line) was 51000 ± 8000 nM and the “SI (CC50/EC50 ratio)” value (HIV-1 BaL [5]) was >12,000. The EC50 (HIV-1 BaL [5]; Human immunodeficiency virus 1, T-lymphocyte, HIV-1BaL infected) was 4.3 ± 1.9 nM, the CC50 [6] was > 50000 nM and the “SI (CC50/EC50 ratio)” value (HIV-1 BaL [7]) was >3,100. For the same compound, the EC50 (HIV-1 BaL [7]; Human immunodeficiency virus 1, Macrophage, HIV-1BaL infected) was 16 ± 12 nM, the CC50 [8] was > 50000 nM and the “data points with fold change in EC50 above limit” value [9] was “five”. For the same compound, the “mean fold change (FC) in EC50 vs wild-type HIV-1 (geometric mean)” value ([9]; 49 PI-resistant reporter viruses) was 9.1 fold, the “isolates with complete loss of activity” value [9] was 3 and the “isolates with greater than 10-fold loss in susceptibility” value ([9]; of 49 isolates, cutoff 10-fold) was 16. The EC50 [1, 18] was 4.2 ± 0.8 nM, the EC50 [1, 19] was 11.7 ± 1.4 nM and the EC50 [1, 20] was 6.9 ± 1.8 nM. The EC50 [1, 21] was 7.6 ± 3.3 nM, the EC50 [1, 22] was 5.7 ± 3.6 nM and the “fold-change relative to WT” value ([1]; PR L24I M46L A77I V82A) was 0.7 fold. For the same compound, the “fold-change relative to WT” value ([1]; PR L24I M46L I64V A77I V82A) was 2.1 fold, the “fold-change relative to WT” value ([1]; PR M46L A77I V82A) was 1.2 fold and the “fold-change relative to WT” value ([1]; PR V82A) was 1.3 fold. For the same compound, the “fold-change relative to WT” value ([1]; Wild type (WT) HIV-1LAI) was 1.0 fold, the “plasma half-life in humans” value [10] was 516 min and the Ki [11] was 0.023 nM.

In the case of Nc1nc(=O)n([C@@H]2CS[C@H](CO)O2)cc1F [FTC, emtricitabine], the Combination effect (HIV-1IIIb) is reported as “Highly synergistic”, the Antagonism volume (HIV-1IIIb) is reported as −8 ± 11 µM^2.% and the Synergy volume (HIV-1IIIb) is reported as 139 ± 24 µM^2.%. The “Fold resistance (mutant/wildtype EC50 ratio)” value ([2]; 6TAMs) was 23 ± 21, the “Fold resistance (mutant/wildtype EC50 ratio)” value ([2]; K65R) was 12 ± 6 and the “Fold resistance (mutant/wildtype EC50 ratio)” value ([2]; M184V) was >141.

COc1ccc(C[C@H](N)C(=O)N[C@H]2[C@@H](O)[C@H](n3cnc4c(N(C)C)ncnc43)O[C@@H]2CO)cc1 [Puromycin, puromycin] gave a CC50 (Cytotoxicity in Gal-PC3) of 450 ± 170 nM, a CC50 [12] of 1400 ± 800 nM and a CC50 (Cytotoxicity in HEp-2) of 600 ± 300 nM. For the same compound, the CC50 (Cytotoxicity in Huh-7) was 800 ± 700 nM, the CC50 (Cytotoxicity in MRC-5) was 310 ± 200 nM and the CC50 [13] was 1600 ± 200 nM. For the same compound, the CC50 [14] was 540 ± 210 nM, the CC50 [15] was 800 ± 150 nM and the CC50 [16] was 310 to 1600 nM.

Compound CC(C)CN(C[C@@H](O)[C@H](Cc1ccccc1)NC(=O)O[C@H]1CO[C@H]2OCC[C@H]21)S(=O)(=O)c1ccc(N)cc1 [DRV, darunavir] has an EC50 ([17]; 168 h, read-out: mean EC50) of 3.2 nM, an EC50 ([17]; read-out: EC50 range) of 0.8 to 9.2 nM and an EC50 (two HIV-2 isolates) of 8.5 nM. For the same compound, the “isolates with complete loss of activity” value [9] was 5.

For Cc1cc(/C=C/C#N)cc(C)c1Nc1ccnc(Nc2ccc(C#N)cc2)n1 [RPV, rilpivirine], the Combination effect (HIV-1IIIb) was “Highly synergistic”, the Antagonism volume (HIV-1IIIb) was 0 ± 0 µM^2.% and the Synergy volume (HIV-1IIIb) was 184 ± 65 µM^2.%.

With CC(C)(C#Cc1ccc(-c2ccc(Cl)c3c(NS(C)(=O)=O)nn(CC(F)(F)F)c23)c([C@H](Cc2cc(F)cc(F)c2)NC(=O)Cn2nc(C(F)(F)F)c3c2C(F)(F)[C@@H]2C[C@H]32)n1)S(C)(=O)=O [LEN, lenacapavir] the Combination effect (HIV-1IIIb) was “Highly synergistic”, the Antagonism volume (HIV-1IIIb) was −0.6 ± 1.7 µM^2.% and the Synergy volume (HIV-1IIIb) was 201 ± 111 µM^2.%.
